Literature values, collected in PMC6282790, “Incorporating physiologically relevant mobile phases in micellar liquid chromatography for the prediction of human intestinal absorption” (Biomedical Chromatography, 2018).
Where two headings read alike, the source gives them in different places.

Legend:
[1] = in 0.15 M NaCl
[2] = set-up: method as in https://pubchem.ncbi.nlm.nih.gov/, December 2014; unit not given beside the values; conditions: literature values; ref https://pubchem.ncbi.nlm.nih.gov/, December 2014
[3] = human intestinal absorption
[4] = ref Castillo‐Garit et al. (2014)

C[C@H](CCC(=O)NCC(=O)[O-])[C@H]1CC[C@H]2[C@@H]3CC[C@@H]4C[C@H](O)CC[C@]4(C)[C@H]3C[C@H](O)[C@]12C.[Na+] [NaGDC, sodium glycodeoxycholate]
CMC ([1]; ref Natalini et al., 2014): 2.2 mM

CCCCC1C(=O)N(c2ccccc2)N(c2ccccc2)C1=O [Phenylbutazone, phenylbutazone]
PSA [2]: 40.6
Experimental. %HIA ([3]; ref Hou et al. (2007), Veber et al. (2002)): 94%

CC(=O)Nc1ccc(O)cc1 [Acetaminophen, acetaminophen]
PSA [2]: 49.3
Experimental. %HIA [3, 4]: 100%

CC(C(=O)O)c1cccc(Oc2ccccc2)c1 (stereo not shown) [Fenoprofen, fenoprofen]
PSA [2]: 46.5
Experimental. %HIA ([3]; ref Hou, Wang, Zhang, & Xu (2007)): 85%

O=C(O)c1cccnc1 [Nicotinic acid, nicotinic acid]
Experimental. %HIA ([3]; ref Newby et al. (2015)): 94%

OC(Cn1cncn1)(Cn1cncn1)c1ccc(F)cc1F [Fluconazole, fluconazole]
PSA [2]: 81.6

C[C@H](CCC(=O)NCCS(=O)(=O)O)[C@H]1CC[C@H]2[C@@H]3[C@H](O)C[C@@H]4C[C@H](O)CC[C@]4(C)[C@H]3C[C@H](O)[C@]12C [NaTC, sodium taurocholate]
CMC ([1]; ref Natalini et al., 2014): 4 mM

NC(=O)N1c2ccccc2C=Cc2ccccc21 [Carbamazepine, carbamazepine]
PSA [2]: 46.3
Experimental. %HIA ([3]; ref Dressman, Amidon, & Fleisher (1985), Varma, Sateesh, & Panchagnula (2005)): 84%

CC(C(=O)O)c1ccc(-c2ccccc2)c(F)c1 (stereo not shown) [Flurbiprofen, flurbiprofen]
PSA [2]: 37.3
Experimental. %HIA ([3]; ref Raevsky (2004)): 92%

CC(C(=O)O)c1cccc(C(=O)c2ccccc2)c1 (stereo not shown) [Ketoprofen, ketoprofen]
PSA [2]: 54.4

C[C@H](CCC(=O)NCC(=O)[O-])[C@H]1CC[C@H]2[C@@H]3[C@H](O)C[C@@H]4C[C@H](O)CC[C@]4(C)[C@H]3C[C@H](O)[C@]12C.[Na+] [NaGC, sodium glycocholate]
CMC ([1]; ref Natalini et al., 2014): 9 mM

CC(=O)Oc1ccccc1C(=O)O [Acetylsalicylic acid, acetyl salicylic acid]
PSA [2]: 63.6
Experimental. %HIA [3, 4]: 82%

COc1ccc2cc([C@H](C)C(=O)O)ccc2c1 [Naproxen, naproxen]
Experimental. %HIA [3, 4]: 94%

O=C(O)c1ccccc1O [Salicylic acid, salicylic acid]
PSA [2]: 57.5
Experimental. %HIA ([3]; ref Raevsky (2004)): 99%

CN(C)CCc1c[nH]c2ccc(C[C@H]3COC(=O)N3)cc12 [Zolmitriptan, zolmitriptan]
PSA [2]: 57.4
Experimental. %HIA ([3]; ref Newby et al. (2015)): 92%

CC(C)Cc1ccc(C(C)C(=O)O)cc1 (stereo not shown) [Ibuprofen, ibuprofen]
PSA [2]: 37.3
Experimental. %HIA ([3]; ref Newby et al. (2015)): 98%

C[C@H](CCC(=O)NCCS(=O)(=O)[O-])[C@H]1CC[C@H]2[C@@H]3CC[C@@H]4C[C@H](O)CC[C@]4(C)[C@H]3C[C@H](O)[C@]12C.[Na+] [NaTDC, sodium taurodeoxycholate]
CMC ([1]; ref Natalini et al., 2014): 2.4 mM

O=C(O)Cc1ccccc1Nc1c(Cl)cccc1Cl [Diclofenac, diclofenac]
Experimental. %HIA ([3]; ref Veber et al. (2002)): 54%

CC(C)(C)NCC(O)c1cc(O)cc(O)c1 (stereo not shown) [Terbutaline, terbutaline]
PSA [2]: 72.7
Experimental. %HIA ([3]; ref Grès et al. (1998)): 25%

CN/C(=N/CCSCc1nc[nH]c1C)NC#N [Cimetidine, cimetidine]
PSA [2]: 88.89
Experimental. %HIA ([3]; ref Castillo‐Garit et al. (2014), Linnankoski, Mäkelä, Ranta, Urtti, & Yliperttula (2006)): 68%

Cn1c(=O)c2[nH]cnc2n(C)c1=O [Theophylline, theophylline]
PSA [2]: 69.3
Experimental. %HIA ([3]; ref Kansy, Senner, & Gubernator (1998)): 98%

C[C@H](CCC(=O)[O-])[C@H]1CC[C@H]2[C@@H]3[C@H](O)C[C@@H]4C[C@H](O)CC[C@]4(C)[C@H]3C[C@H](O)[C@]12C.[Na+] [NaC, sodium cholate]
CMC ([1]; ref Reis et al., 2004): 7.5 mM
